Laboratory results reported in ChEMBL document CHEMBL1156523, “Cryptosporidium p30, a galactose/N-acetylgalactosamine-specific lectin, mediates infection in vitro” (J Biol Chem, 2007).
In brackets after ≈: the same amount, converted by molar mass.

Key:
[1] = Inhibition of Cryptosporidium parvum recombinant Galactose/N-acetylgalactosamine-specific lectin binding to Caco2A cells; type: cell-based; conditions: caco-2
Cryptosporidium hominis [2] = assay: Anticryptosporidial activity against Cryptosporidium hominis TU502 assessed as inhibition of rabbit erythrocytes hemagglutinination relative to galactose; type: functional
Cryptosporidium parvum [3] = assay: Anticryptosporidial activity against Cryptosporidium parvum GCH1 assessed as inhibition of rabbit erythrocytes hemagglutinination; type: functional
Cryptosporidium parvum [4] = assay: Anticryptosporidial activity against Cryptosporidium parvum GCH1 assessed as inhibition of rabbit erythrocytes hemagglutinination relative to galactose; type: functional
Cryptosporidium hominis [5] = assay: Anticryptosporidial activity against Cryptosporidium hominis TU502 assessed as inhibition of rabbit erythrocytes hemagglutinination; type: functional

Compound | IC50 [1] | Activity (Cryptosporidium hominis [2]) | MIC (Cryptosporidium parvum [3]) | Activity (Cryptosporidium parvum [4]) | MIC (Cryptosporidium hominis [5])
CO[C@H]1O[C@H](CO)[C@@H](O)[C@H](O)[C@H]1O | > 500 mM | – | – | – | –
O=[N+]([O-])c1ccc(O[C@@H]2O[C@H](CO)[C@H](O)[C@H](O)[C@H]2O)cc1 | 50 mM | – | – | – | –
CC(=O)N[C@H]1C(O)O[C@H](CO)[C@H](O)[C@@H]1O[C@@H]1O[C@H](CO)[C@H](O)[C@H](O)[C@H]1O (stereo partly drawn) | 3.5 mM | – | – | – | –
CC(=O)N[C@H]1C(O)O[C@H](CO)[C@H](O)[C@@H]1O (stereo partly drawn) | 6.5 mM | 2 | 3.1 mM (≈ 686 µg/mL) | 2 | 3.1 mM (≈ 686 µg/mL)
CC(=O)N[C@@H]1[C@@H](O[C@@H]2O[C@H](CO)[C@H](O)[C@H](O)[C@H]2O)[C@H](O)[C@@H](CO)O[C@H]1O | 1.5 mM | – | – | – | –
OC[C@H]1O[C@H](O[C@@H]2[C@H](O)[C@@H](O)C(O)O[C@@H]2CO)[C@H](O)[C@@H](O)[C@H]1O (stereo partly drawn) | 2.5 mM | – | – | – | –
OC[C@H]1O[C@H](O[C@H]2[C@H](O)[C@@H](O)[C@H](O)O[C@@H]2CO)[C@H](O)[C@@H](O)[C@H]1O | 5 mM | – | – | – | –
O=[N+]([O-])c1ccc(O[C@H]2O[C@H](CO)[C@H](O)[C@H](O)[C@H]2O)cc1 | 25 mM | – | – | – | –
CC(=O)N[C@@H]1[C@@H](O)[C@H](O)[C@@H](CO[C@@H]2O[C@H](CO)[C@H](O)[C@H](O)[C@H]2O)O[C@H]1O | 0.5 mM | – | – | – | –
OC[C@H]1OC(O)[C@@H](O)[C@@H](O)[C@@H]1O (stereo partly drawn) [D-MANNOSE] | > 500 mM | 0.062 | 50 mM (≈ 9010 µg/mL) | 0.124 | > 100 mM
OC[C@H]1O[C@@H](O)[C@H](O)[C@@H](O)[C@@H]1O [DEXTROSE] | > 500 mM | 0.062 | 100 mM (≈ 18000 µg/mL) | 0.062 | > 100 mM
O=C[C@H](O)[C@@H](O)[C@@H](O)[C@H](O)CO [GALACTOSE] | 12.5 mM | 1 | 6.2 mM (≈ 1120 µg/mL) | 1 | 6.2 mM (≈ 1120 µg/mL)
C[C@H](O)[C@@H](O)[C@@H](O)[C@H](O)C=O [L-FUCOSE] | > 500 mM | <0.062 | > 100 mM | <0.062 | > 100 mM
CC(=O)N[C@@H]1[C@@H](O)[C@H](O)[C@@H](CO)O[C@H]1O [N-ACETYLGLUCOSAMINE] | > 500 mM | 0.062 | 50 mM (≈ 11100 µg/mL) | 0.124 | > 100 mM
